Paper PMC4013547 (ACS chemical biology, 2013)

biological target: Ldtfm (E. faecium L,D-transpeptidase, catalytic domain) (Enterococcus faecium, UniProt Q3Y185); experiment: NMR chemical shift perturbation; type: binding; details: covalent; active-site cysteine Cys442; Pocket 1

Structure (SMILES) | NMR chemical shift perturbation
C[C@@H](O)[C@H]1C(=O)N2C(C(=O)O)=C(S[C@@H]3CN[C@H](C(=O)N(C)C)C3)[C@H](C)[C@H]12 [meropenem] | NMR chemical shift perturbations observed with imipenem, doripenem and meropenem
C[C@@H](O)[C@H]1C(=O)N2C(C(=O)O)=C(S[C@@H]3CN[C@H](CNS(N)(=O)=O)C3)[C@H](C)[C@H]12 [doripenem] | NMR chemical shift perturbations observed with imipenem, doripenem and meropenem
C[C@@H](O)[C@H]1C(=O)N2C(C(=O)O)=C(SCCN=CN)C[C@H]12 [imipenem] | NMR chemical shift perturbations observed with imipenem, doripenem and meropenem
